Results published in patent publication US6441027B1, “Method of regulating the female reproductive system through angiogenesis inhibitors” (Children's Medical Center Corporation, priority 1996, dated 2002).
Entries after “also recorded” stand apart in the source; their conditions may differ.

Legend:
[1] = test system: bFGF induced neovascularization; experiment: Mouse corneal micropocket model, bFGF pellet; format: in vivo; details: mouse cornea, n=10/group, p<0.001
Protocol: To confirm that angiogenesis was being inhibited, AGM-1470 was tested in vivo. A mouse corneal micropocket model was used which was recently developed to model tumor angiogenesis. Pellets of bFGF or VEGF were implanted in the mouse cornea resulting in aggressive neovascularization. AGM-1470 inhibited the amount of bFGF or VEGF induced neovascularization by 47% or 62% respectively (n=10/group p<0.001).

[2] = test system: intersite endometrium; experiment: Factor VIII microvessel density of intersite endometrium on E6; format: in vivo, mouse
Protocol: To test this hypothesis, mice were treated with AGM-1470 on E1 and sacrificed at E6, a time point prior to placental formation. The uteri of the mice were examined by antibodies to Factor VIII and PCNA to determine if there was any difference in the degree of endometrial angiogenesis or the proliferative response of the decidua induced by trophoblast invasion. However, in the decidua there was a 50% decrease in the proliferation of stromal cells in the AGM-1470 treated mice as compared to control (PCNA staining/X630 field in control was 48%±3, n=4, versus 24%±5, n=4, P≦0.005 in AGM-1470 treated mice. See FIG. 4A and 4B). […]
To determine microvessel density, Carnoy's-fixed tissue sections were pretreated with 2 microgram/ml Proteinase K (Boehringer Mannheim, Mannheim, Germany) at 37° Celsius for 15 minutes before staining with a rabbit polyclonal antibody against mouse factor VIII (Dako, Carpinteria, Calif.). Positive staining was detected by incubating sequentially with a secondary antibody against rabbit conjugated to horseradish peroxidase (Dako) and diaminobenzidine tetrahydrochloride (DAB) (Dako) as a chromagen. […] Microvessel density was determined by light microscopy. Each count was expressed as the number of microvessels identified within a selected field. Ten fields per section were counted. […]

[3] = test system: endometrium; experiment: Cycling mice, chronic treatment: examination of the uterus; format: in vivo, mouse
Protocol: Mice were randomized and received either AGM-1470 30 mg/kg s.c. or saline 0.1 ml s.c. every other day for 16 days (approximately four estrous cycles). On the last of four days of treatment mice were housed with male mice to see if successful mating and conception would occur. On day 16 mice were weighed and sacrificed by cervical dislocation. The ovaries were resected enbloc, fixed in Carnoy's fixative, and embedded in paraffin according to standard histologic techniques. Sections were cut at 6 microns and stained with hematoxylin and eosin.
To determine microvessel density, Carnoy's-fixed tissue sections were pretreated with 2 microgram/ml Proteinase K (Boehringer Mannheim, Mannheim, Germany) at 37° Celsius for 15 minutes before staining with a rabbit polyclonal antibody against mouse factor VIII (Dako, Carpinteria, Calif.). Positive staining was detected by incubating sequentially with a secondary antibody against rabbit conjugated to horseradish peroxidase (Dako) and diaminobenzidine tetrahydrochloride (DAB) (Dako) as a chromagen. Sections were counterstained with methyl green (Schmid & Co., Stuttgart, Germany) and mounted in Permount (Fisher, Fair Lawn, N.J.). Microvessel density was determined by light microscopy. Each count was expressed as the number of microvessels identified within a selected field. Ten fields per section were counted.
To determine the rate of cellular proliferation, staining for proliferating cell nuclear antigen (PCNA) was performed. Carnoy's-fixed sections were pretreated in target unmasking fluid (Signet Laboratories, Dedham, Mass.) for 10 minutes at 90° for antigen retrieval. Immunohistochemical staining was performed with an anti-PCNA murine monoclonal antibody (Signet). Positive staining was detected by using horse radish peroxidase-conjugated secondary (Dako) and tertiary (Dako) antibodies, and DAB as a chromagen. The PCNA labeling index was determined by counting the percentage of stained cells under light microscopy within selected 630× fields. A minimum of 1,000 cells were counted for each specimen.
For staining of apoptotic cells, Carnoy's-fixed sections were treated according to the protocol of the Apoptag manufacturer (Oncor, Gaithersburg, Md.) except the pretreatment step with Proteinase K was omitted. After TdT labeling of specimens, positive staining was detected with a peroxidase-labeled antibody against deoxyuridine peroxidase substrate. Sections were counterstained as described above. The apoptotic index was determined by counting the percentage of stained cells under light microscopy within selected 630× fields. A minimum of 1,000 cells was counted for each specimen.
In experiments with AGM-1470 treatment of pregnant mice, transverse sections through embryos contained within the uterus were stained. Microvessels density was determined at the intersite endometrium and PCNA was determined in the decidual stroma. In experiments with AGM-1470 treatment of non-pregnant mice, transverse sections through the endometrium were stained for factor VIII, PCNA or apoptotic cells at the level of the endometrial lumen at its widest diameter. Statistical analysis was performed with ANOVA on ranked data to account for the expected variation of endometrial angiogenesis and glandular proliferation in the control due to different phases of the estrous cycle.

[4] = test system: female C57BL/6 mice; experiment: Single dose on E(-1): implantation sites 6 days after mating; format: in vivo, mouse; details: single dose 30 mg/kg s.c. on E(-1), sacrificed 6 days after mating
Protocol: (§1) FIGS. 7A and 7B show the ovaries and uteri from a control mouse or an AGM-treated mouse given a single dose of AGM-1470 on E(−1). Group housed female C57BL/6 mice were treated with a single injection of AGM-1470 (30 mg/kg, s.c.) and paired with male breeders. Mice who mated on the day after treatment were sacrificed 6 days after mating. Ovaries and uteri were removed en bloc, fixed and stained with hemotoxylin and eosin. […] Thin arrows indicate the corpora lutea.
as §1, with “In addition,” for “FIGS. 7A and 7B show”, “from” for “from a”, “and” for “mouse or an AGM-treated mouse given a”, “treatment mice were examined.” for “dose of AGM-1470 on E(−1).”, “lutea.^1 The fat arrows indicate implantation sites in control not seen in treated animal.” for “lutea.”

[5] = test system: angiogenesis; details: cited from earlier work
[6] = 30 mg/kg s.c. every other day, greater than 100 days of therapy; cited from earlier work
[7] = 30 mg/kg every other day for 16 days
[8] = 30 mg/kg every other day for 16 days, n=6
[9] = 30 mg/kg every other day for 16 days, vs control

CO[C@@H]1[C@H](OC(=O)NC(=O)CCl)CC[C@]2(CO2)[C@H]1[C@@]1(C)O[C@@H]1CC=C(C)C [AGM-1470, O-chloroacetylcarbamoyl fumagillol]
inhibition of bFGF induced neovascularization [1]: 47% | decrease in microvessel density in intersite endometrium vs control ([2]; treated on E1, sacrificed E6): 52% | microvessel density in intersite endometrium ([2]; treated on E1, sacrificed E6, n=4): 57±13 vessels/X250 field | decrease in microvessel density (Factor VIII) vs control [3, 7]: 41% | decrease in number of proliferating vessels [3, 7]: 71% | decrease in percentage of proliferating glandular epithelial cells (PCNA) [3, 7]: 67% | decrease in proliferation rate of endometrial stromal cells (PCNA) [3, 7]: 68% | number of proliferating vessels ([3]; 30 mg/kg every other day for 16 days, n=5): 5±2 vessels/X630 field | endometrial glands [3, 8]: 3±2 glands/X250 field | percentage of proliferating glandular epithelial cells (PCNA) [3, 8]: 10%±3 | proliferation rate of endometrial stromal cells (PCNA) [3, 8]: 5% ±2 | apoptotic index (Apo-Tag staining) [3, 9]: not significantly different | uterus thickness [3, 9]: consistently thinner | fewer endometrial glands than control ([3]; 30 mg/kg s.c. every other day for 16 days): 63% | implantation sites [4]: prevented implantation; also recorded: not seen in AGM-1470 treated animal | activity relative to parent compound fumagillin [5]: 50 times | toxicity of dosing schedule [6]: no evident toxicity
